Data: US9232796B2, “Herbicidal compositions comprising 4-amino-3-chloro-5-fluoro-6-(4-chloro-2-fluoro-3-methoxyphenyl) pyridine-2-carboxylic acid or a derivative thereof and acetyl-CoA carboxylase (ACCase) inhibitors” (DOW AGROSCIENCES LLC, priority 2012, dated 2016)

Assays:
ECHCG [1] = experiment: Example VI in-water applied ternary mixtures, greenhouse, transplanted paddy rice weeds; type: in vivo, Echinochloa crus-galli (L.) Beauv.; conditions: Table 68, 22.5 gai/ha, 21 DAA
Protocol: (§1) Weed seeds or nutlets of the desired test plant species were planted in puddled soil (mud) prepared by mixing a shredded, non-sterilized mineral soil (50.5 percent silt, 25.5 percent clay, and 24 percent sand, with a pH of about 7.6 and an organic matter content of about 2.9 percent) and water at a 1:1 volumetric ratio. The prepared mud was dispensed in 365 mL aliquots into 16-ounce (oz.) non-perforated plastic pots with a surface area of 86.59 square centimeters (cm^2) leaving a headspace of 3 centimeters (cm) in each pot. Mud was allowed to dry overnight prior to planting or transplanting. Rice seeds were planted in Sun Gro MetroMix® 306 planting mixture, which typically has a pH of 6.0 to 6.8 and an organic matter content of about 30 percent, in plastic plug trays. Seedlings at the second or third leaf stage of growth were transplanted into 860 mL of mud contained in 32-oz. non-perforated plastic pots with a surface area of 86.59 cm^2 4 days prior to herbicide application. The paddy was created by filling the headspace of the pots with 2.5 to 3 cm of water. When required to ensure good germination and healthy plants, a fungicide treatment and/or other chemical or physical treatment was applied. The plants were grown for 4-22 days in a greenhouse with an approximate 14 hr. photoperiod which was maintained at about 29° C. during the day and 26° C. during the night. Nutrients were added as Osmocote® (19:6:12, N:P:K+minor nutrients) at 2 g per 16-oz. pot and 4 g per 32-oz. pot. Water was added on a regular basis to maintain the paddy flood, and supplemental lighting was provided with overhead metal halide 1000-Watt lamps as necessary. The plants were employed for testing when they reached the first through fourth true leaf stage.
Treatments consisted of the benzyl ester of 4-amino-3-chloro-5-fluoro-6-(4-chloro-2-fluoro-3-methoxy-phenyl)pyridine-2-carboxylic acid (Compound A), formulated as an SC (suspension concentrate), an ACCase inhibitor herbicide, and a third herbicidal component, each applied alone and in ternary combination. Forms of compound A were applied on an acid equivalent basis.
The ACCase inhibitor component was applied on an active ingredient basis and included cyhalofop-R-butyl formulated as Clincher® G and metamifop formulated as Metamifop EC. Other herbicidal components were applied on an active ingredient or acid equivalent basis depending on the compound and included penoxsulam formulated as Grasp® SC, bentazon sodium formulated as Basagran®, triclopyr […] (TEA) salt formulated as Grandstand® R, benzobicyclon formulated as Benzobicyclon, benfuresate formulated as Full Slot® WG, pyraclonil formulated as Pyraclon® Flowable, mefenacet (technical grade material), and pretilachlor (technical grade material).
Treatment requirements for each compound or herbicidal component were calculated based upon the rates being tested, the concentration of active ingredient or acid equivalent in the formulation, an application volume of 1 mL per component per pot, and an application area of 86.59 cm^2 per pot.
(§2) For formulated compounds, a measured amount was placed in an individual 100 or 200 mL glass vial and was dissolved in a volume of 1.25% (v/v) Agri-Dex® crop oil concentrate to obtain application solutions.
For technical grade compounds, a weighed amount was placed in an individual 100 to 200 mL glass vial and was dissolved in a volume of acetone to obtain concentrated stock solutions.
(§3) Applications were made by injecting with a pipetter appropriate amounts of the application solutions, into the aqueous layer of the paddy. Control plants were treated in the same manner with the solvent blank. Applications were made so that all treated plant material received the same concentrations of acetone and crop oil concentrate.
The treated plants and control plants were placed in a greenhouse as described above and water was added as needed to maintain a paddy flood. […]

SCPMA = experiment: as above; type: in vivo; conditions: Table 68, pyraclonil 22.5 gai/ha
SCPJU [2] = experiment: Example I postemergence foliar-applied, greenhouse, direct seeded rice weeds; type: in vivo, Schoenoplectus juncoides (Roxb.) Palla
Source text: (§4) Seeds or nutlets of the desired test plant species were planted in a soil matrix prepared by mixing a loam or sandy loam soil (e.g., 28.6 percent silt, 18.8 percent clay, and 52.6 percent sand, with a pH of about 5.8 and an organic matter content of about 1.8 percent) and calcareous grit in an 80 to 20 ratio. The soil matrix was contained in plastic pots with a volume of 1 quart and a surface area of 83.6 square centimeters (cm^2). When required to ensure good germination and healthy plants, a fungicide treatment and/or other chemical or physical treatment was applied. The plants were grown for 8-22 days in a greenhouse with an approximate 14 hr. photoperiod which was maintained at about 29° C. during the day and 26° C. during the night. Nutrients (Peters Excel® 15-5-15 5-Ca 2-Mg and iron chelate) were applied in the irrigation solution as needed and water was added on a regular basis. Supplemental lighting was provided with overhead metal halide 1000-Watt lamps as necessary. The plants were employed for testing when they reached the first through fourth true leaf stage.
(§5) Treatments consisted of the acid or esters of 4-amino-3-chloro-5-fluoro-6-(4-chloro-2-fluoro-3-methoxy-phenyl)pyridine-2-carboxylic acid (Compound A), each formulated as an SC (suspension concentrate), and various herbicidal components alone and in combination.
(§6) Other herbicidal components were applied on an acid equivalent (ae) or active ingredient (ai) basis and included acetyl coA carboxylase (ACCase)-inhibiting herbicides (cyclohexanedione and aryloxyphenoxypropionate chemical classes) cyhalofop-butyl formulated as Clincher® SF (285 gr ai/L EC), diclofop-methyl formulated as Hoelon® 3EC, fenoxaprop-p-ethyl+isoxadifen-ethyl formulated as RiceStar® HT (0.58 lb./gal EC), fenoxaprop-p-ethyl+mefenpyr diethyl formulated as Puma® IEC, metamifop formulated as Metamifop EC, haloxyfop-methyl formulated as Gallant Super®, fluazifop-p-butyl formulated as Fusilade® DX, quizalofop-p-ethyl formulated as Assure® II, profoxydim formulated as Aura® 20EC, clethodim applied as Intensity®, sethoxydim formulated as Poast®, and tralkoxydim formulated as Achieve®.
(§7) Treatment requirements were calculated based upon the rates being tested, the concentration of active ingredient or acid equivalent in the formulation, and a 12 mL application volume at a rate of 187 L/ha.
(§8) For treatments comprised of formulated compounds, measured amounts of compounds were placed individually in 25 mL glass vials and diluted in a volume of 1.25% (v/v) Agri-Dex® crop oil concentrated to obtain 12× stock solutions. […] Application solutions were prepared by adding an appropriate amount of each stock solution (e.g., 1 mL) and diluted to the appropriate final concentrations with the addition of 10 mL of an aqueous mixture of 1.25% (v/v) crop oil concentrate so that the final spray solutions contained 1.25+/−0.05% (v/v) crop oil concentrate.
(§9) All stock solutions and applications solutions were visually inspected for compound compatibility prior to application. Spray solutions were applied to the plant material with an overhead Mandel track sprayer equipped with a 8002E nozzles calibrated to deliver 187 L/ha over an application area of 0.503 m^2 at a spray height of 18 to 20 inches (46 to 50 cm) above average plant canopy height. Control plants were sprayed in the same manner with the solvent blank.
(§10) The treated plants and control plants were placed in a greenhouse as described above and watered by sub-irrigation to prevent wash-off of the test compounds. After approximately 3 weeks, the condition of the test plants as compared with that of the untreated plants was determined visually and scored on a scale of 0 to 100 percent where 0 corresponds to no injury or growth inhibition and 100 corresponds to complete kill. […]

DIGSA = experiment: as above; type: in vivo, Digitaria sanguinalis (L.) Scop.; conditions: 70 gai/ha
Source text: as §4
Treatments consisted of the acid or esters of 4-amino-3-chloro-5-fluoro-6-(4-chloro-2-fluoro-3-methoxy-phenyl)pyridine-2-carboxylic acid (Compound A), each formulated as an SC (suspension concentrate), and various herbicidal components alone and in combination. […]
as §7
For treatments comprised of formulated compounds, measured amounts of compounds were placed individually in 25 mL glass vials and diluted in a volume of 1.25% (v/v) Agri-Dex® crop oil concentrated to obtain 12× stock solutions. […]
as §10

BRAPP = experiment: as above; type: in vivo, Brachiaria platyphylla (Griseb.) Nash; conditions: 70 gai/ha
Source text: as §4, §5, §6, §7, §8, §9, §10

CYPES = experiment: as above; type: in vivo, Cyperus esculentus L.
Source text: as §4, §5, §6, §7, §8, §9, §10

ECHCG [3] = experiment: Example II in-water applied, greenhouse, transplanted paddy rice weeds; type: in vivo, Echinochloa crusgalli (L.) Beauv.; conditions: 135 gai/ha
Protocol: as §3, with “solutions, individually and sequentially,” for “solutions,”
(§11) The treated plants and control plants were placed in a greenhouse as described above and water was added as needed to maintain a paddy flood. After approximately 3 weeks the condition of the test plants as compared with that of the untreated plants was determined visually and scored on a scale of 0 to 100 percent where 0 corresponds to no injury or growth inhibition and 100 corresponds to complete kill.
(§12) Colby's equation was used to determine the herbicidal effects expected from the mixtures (Colby, S. R. 1967. Calculation of the synergistic and antagonistic response of herbicide combinations. Weeds 15:20-22.).
(§13) The following equation was used to calculate the expected activity of mixtures containing two active ingredients, A and B: Expected=A+B−(A×B/100)

CYPDI = experiment: Example I postemergence foliar-applied, greenhouse, direct seeded rice weeds; type: in vivo, Cyperus difformis L.
Source text: as §4, §5, §6, §7, §8
All stock solutions and applications solutions were visually inspected for compound compatibility prior to application. […]
as §10

LEFCH = experiment: as above; type: in vivo, Leptochloa chinensis (L.) Nees; conditions: 112 gai/ha
Source text: as §4, §5, §6, §7, §8, §9, §10

SCPJU [4] = experiment: Example II in-water applied, greenhouse, transplanted paddy rice weeds; type: in vivo, Schoenoplectus juncoides (Roxb.) Palla; conditions: in-water, 135 gai/ha
Protocol: as §1, with “When required to ensure good germination and healthy plants, a fungicide treatment and/or other chemical or physical treatment was applied.” left out
(§14) Treatments consisted of the acid or esters of 4-amino-3-chloro-5-fluoro-6-(4-chloro-2-fluoro-3-methoxy-phenyl)pyridine-2-carboxylic acid (compound A) each formulated as an SC (suspension concentrate) and various herbicidal components alone and in combination.
as §2
as §3, with “solutions, individually and sequentially,” for “solutions,”
as §11, §12, §13

ECHCG [5] = experiment: Example I postemergence foliar-applied, greenhouse, direct seeded rice weeds; type: in vivo, Echinochloa crusgalli (L.) Beauv.
Source text: as §4, §5, §6, §7, §8, §9, §10

FIMMI = experiment: Example II in-water applied, greenhouse, transplanted paddy rice weeds; type: in vivo, Fimbristylis miliacea (L.) Vahl
Protocol: as §1, with “When required to ensure good germination and healthy plants, a fungicide treatment and/or other chemical or physical treatment was applied.” left out
as §14, §2
as §3, with “solutions, individually and sequentially,” for “solutions,”
as §11, §12, §13

CYPIR = experiment: Example I postemergence foliar-applied, greenhouse, direct seeded rice weeds; type: in vivo, Cyperus iria L.
Source text: as §4, §5, §6, §7, §8, §9, §10

C#CCN(C)c1c(C#N)cnn1-c1nn2c(c1Cl)CCCC2 [Pyraclonil]
Visual Weed Control (%) - 21 DAA ECHCG Obs (ECHCG [1]): 30%
Visual Weed Control (%) - 21 DAA SCPMA Obs (SCPMA): 78%

CCSC(C)CC1CC(=O)C(/C(CC)=N/OC/C=C/Cl)=C(O)C1 (stereo not shown) [Clethodim, 2-[1-[[[(2E)-3-chloro-2-propen-1-yl]oxy]imino]propyl]-5-[2-(ethylthio)propyl]-3-hydroxy-2-cyclohexen-1-one, reference compound]
Visual Weed Control (%) - 20 DAA SCPJU Obs (SCPJU [2]; 140 gai/ha): 0%
Visual Weed Control (%) - 20 DAA SCPJU Obs (SCPJU [2]; 280 gai/ha): 0%
Visual Weed Control (%) - 20 DAA DIGSA Obs (DIGSA): 50%
Visual Weed Control (%) - 20 DAA BRAPP Obs (BRAPP): 10%
Visual Weed Control (%) - 20 DAA CYPES Obs (CYPES; 70 gai/ha): 0%
Visual Weed Control (%) - 20 DAA CYPES Obs (CYPES; 140 gai/ha): 0%
Visual Weed Control (%) - 20 DAA CYPES Obs (CYPES; 280 gai/ha): 0%

CCC/C(=N\OCC)C1=C(O)CC(CC(C)SCC)CC1=O (stereo not shown) [Sethoxydim, 2-[1-(ethoxyimino)butyl]-5-[2-(ethylthio)propyl]-3-hydroxy-2-cyclohexen-1-one]
Visual Weed Control (%) - 21 DAA ECHCG Obs (ECHCG [3]): 60%
Visual Weed Control (%) - 22 DAA CYPDI Obs (CYPDI; 67.5 gai/ha): 0%
Visual Weed Control (%) - 22 DAA CYPDI Obs (CYPDI; 135 gai/ha): 0%
Visual Weed Control (%) - 22 DAA CYPDI Obs (CYPDI; 270 gai/ha): 0%
Visual Weed Control (%) - 22 DAA SCPJU Obs (SCPJU [2]; 67.5 gai/ha): 0%
Visual Weed Control (%) - 22 DAA SCPJU Obs (SCPJU [2]; 135 gai/ha): 0%
Visual Weed Control (%) - 22 DAA SCPJU Obs (SCPJU [2]; 270 gai/ha): 0%
Visual Weed Control (%) - 22 DAA LEFCH Obs (LEFCH): 70%
Visual Weed Control (%) - 21 DAA SCPJU Obs (SCPJU [4]): 0%
Visual Weed Control (%) - 22 DAA ECHCG Obs (ECHCG [5]; 56 gai/ha): 30%
Visual Weed Control (%) - 22 DAA ECHCG Obs (ECHCG [5]; 112 gai/ha): 90%
Visual Weed Control (%) - 21 DAA FIMMI Obs (FIMMI; 135 gai/ha): 50%
Visual Weed Control (%) - 21 DAA FIMMI Obs (FIMMI; 270 gai/ha): 30%
Visual Weed Control (%) - 22 DAA CYPIR Obs (CYPIR; 67.5 gai/ha): 0%
Visual Weed Control (%) - 22 DAA CYPIR Obs (CYPIR; 135 gai/ha): 0%
Visual Weed Control (%) - 22 DAA CYPIR Obs (CYPIR; 270 gai/ha): 0%
Visual Weed Control (%) - 22 DAA CYPES Obs (CYPES; 67.5 gai/ha): 0%
Visual Weed Control (%) - 22 DAA CYPES Obs (CYPES; 135 gai/ha): 0%
Visual Weed Control (%) - 22 DAA CYPES Obs (CYPES; 270 gai/ha): 0%
